Source: ChEMBL document CHEMBL1135320, “Novel phenolic antioxidants as multifunctional inhibitors of inducible VCAM-1 expression for use in atherosclerosis” (Bioorg Med Chem Lett, 2002)
Activity calls are given as the source filed them. No cut-off for these calls is given here.

Tests used:
HASMC [1] = test: Inhibition of proliferation of human aortic smooth muscle cells at a concentration of 5 uM; format: functional
[2] = Concentration required for 50% inhibition of TNF-alpha inducible MCP-1 expression.
Mus musculus = test: Inhibition of progression of atherosclerosis in aorta after oral dosing in cholesterol fed LDL receptor knockout mice; format: functional
[3] = Concentration required for 50% inhibition of TNF-alpha inducible Selectin E expression.
Oryctolagus cuniculus = test: Inhibition of progression of atherosclerosis in aorta after oral dosing in cholesterol fed rabbits; format: functional
[4] = Inhibitory effect in preventing the oxidation of linoleic acid by 15-lipoxygenase at a concentration of 70 uM; format: functional
HASMC [5] = test: Inhibition of proliferation of human aortic smooth muscle cells at a concentration of 5 uM; NE is no Effect; format: functional, cell-based

Compound | inhibition at 5 µM (HASMC [1]) | IC50 [2] | Inhibition (Mus musculus) | IC50 [3] | Inhibition (Oryctolagus cuniculus) | inhibition [4] | inhibition (HASMC [5])
CC(C)(Sc1cc(C(C)(C)C)c(O)c(C(C)(C)C)c1)Sc1cc(C(C)(C)C)c(OC(=O)CCC(=O)O)c(C(C)(C)C)c1 [SUCCINOBUCOL] | ~50% | 10 µM | 43% | 25 µM | 94% | 85% | 
CC(C)(Sc1cc(C(C)(C)C)c(OC(=O)CCC(=O)O)c(C(C)(C)C)c1)Sc1cc(C(C)(C)C)c(OC(=O)CCC(=O)O)c(C(C)(C)C)c1 |  |  |  |  |  | 85% | 
CC(C)(Sc1cc(C(C)(C)C)c(O)c(C(C)(C)C)c1)Sc1cc(C(C)(C)C)c(O)c(C(C)(C)C)c1 |  |  |  |  |  |  | inactive
